The test concerns the target T1, HIV-1 reverse transcriptase (HIV-1逆转录酶) (Human immunodeficiency virus type 1 group M subtype B, UniProt P03366).
T1 construct: HIV-1逆转录酶HIV-1 RT为基因工程重组酶
Nature of the test: HIV-1 RT activity assay (oligo(dT)15-coated 96-well plate, poly(A) template, biotin-11-dUTP / SA-ALP / PNPP, 405 nm). It is filed as biochemical. Particulars: relative to nevirapine (NVP); range stated for the six compounds together.
On to `CN(C)c1c(Cc2ccccc2)n(COCc2ccccc2)c(=O)[nH]c1=O` [化合物7, 1-苄氧甲基-5-N,N-二甲基氨基-6-苄基尿嘧啶], for which the “activity higher than that of nevirapine (NVP)” value is listed as 3.6-627 fold. The figure for `O=c1[nH]c(=O)n(COCc2ccccc2)c(Cc2ccccc2)c1Br` [化合物6, 1-苄氧甲基-5-溴-6-苄基尿嘧啶] is 3.6-627 fold. As for `O=c1[nH]c(=O)n(COCc2ccccc2)c(Cc2ccccc2)c1I` [化合物5, 1-苄氧甲基-5-碘-6-苄基尿嘧啶], the figure is 3.6-627 fold. The figure for `CCOCn1c(Cc2ccccc2)c(I)c(=O)[nH]c1=O` [化合物8, 1-乙氧甲基-5-碘-6-苄基尿嘧啶] is 3.6-627 fold; for `CCOCn1c(Cc2ccccc2)c(N(C)C)c(=O)[nH]c1=O` [化合物10, 1-乙氧甲基-5-N,N-二甲基氨基-6-苄基尿嘧啶] it is 3.6-627 fold. Turning to `CCOCn1c(Cc2ccccc2)c(Br)c(=O)[nH]c1=O` [化合物9, 1-乙氧甲基-5-溴-6-苄基尿嘧啶], the “activity higher than that of nevirapine (NVP)” value is 3.6-627 fold.

The values above are taken from CN101016265A, “一种新型hiv-1逆转录酶抑制剂的制备及其用途” (Capital Medical University, priority 2007, dated 2007).
